Target: T1, (UniProt A0A221C6W1)
T1 construct: gene UGT201D3; recombinant pET-28a-UGT201D3q, 15 N-terminal hydrophobic amino acids removed, expressed in E. coli BL21 (DE3), Ni-NTA purified
Test: inhibition of α-naphthol glycosylation by the purified recombinant enzyme, Dixon plot (IC50 […]); HPLC depletion of abamectin
Type: biochemical, Tetranychus cinnabarinus

T1 sequence (A0A221C6W1 16-460 limits assumed): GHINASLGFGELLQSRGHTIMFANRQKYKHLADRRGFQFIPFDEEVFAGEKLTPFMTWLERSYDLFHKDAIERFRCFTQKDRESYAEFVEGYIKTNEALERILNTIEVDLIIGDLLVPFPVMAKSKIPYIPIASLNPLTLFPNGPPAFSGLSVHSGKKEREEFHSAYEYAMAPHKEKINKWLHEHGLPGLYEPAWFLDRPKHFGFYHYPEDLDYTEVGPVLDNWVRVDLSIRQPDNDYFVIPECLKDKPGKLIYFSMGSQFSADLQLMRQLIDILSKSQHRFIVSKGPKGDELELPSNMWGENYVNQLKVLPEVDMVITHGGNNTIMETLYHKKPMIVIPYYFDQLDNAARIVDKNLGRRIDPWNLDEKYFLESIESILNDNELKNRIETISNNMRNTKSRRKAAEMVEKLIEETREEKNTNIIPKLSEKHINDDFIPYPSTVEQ

Structure (SMILES): CC[C@H](C)[C@H]1O[C@]2(C=C[C@@H]1C)C[C@@H]1C[C@@H](C/C=C(\C)[C@@H](O[C@H]3C[C@H](OC)[C@@H](O[C@H]4C[C@H](OC)[C@@H](O)[C@H](C)O4)[C@H](C)O3)[C@@H](C)/C=C/C=C3\CO[C@@H]4[C@H](O)C(C)=C[C@@H](C(=O)O1)[C@]34O)O2.CO[C@H]1C[C@H](O[C@H]2[C@H](C)O[C@@H](O[C@@H]3/C(C)=C/C[C@@H]4C[C@@H](C[C@]5(C=C[C@H](C)[C@@H](C(C)C)O5)O4)OC(=O)[C@@H]4C=C(C)[C@@H](O)[C@H]5OC/C(=C\C=C\[C@@H]3C)[C@]54O)C[C@@H]2OC)O[C@@H](C)[C@@H]1O [abamectin]
- Ki: 9.9 ± 6.2 µM
